Experimental findings from patent US20230048350A1, “BENZOCOUMARIN AMPK ACTIVATOR COMPOUNDS, COMPOSITIONS, METHODS AND USES THEREOF” (SOCIETE DES PRODUITS NESTLE S.A., priority 2019, published 2023) are described below.

One test has as its system AMPK. Briefly: pACC HTRF assay in U-2 OS Flp-In T-REx cells. The test is classed as cell-based. The conditions noted are these: 30 mins, varying concentrations, HTRF 665 nm/620 nm ratio. As for the experimental part: U-2 OS Flp-In T-REx cells were seeded at 50 K in a 96-well plate and left overnight at 37 C in DMEM GlutaMAX (Thermo Fisher Scientific) supplemented with 10% (vol/vol) FBS and 100 U/ml penicillin G, and 100 μg/ml streptomycin. Cells were treated for 30 mins with varying concentrations of Compound 1 in media lacking FBS and then cells were lysed in 50 μl of Cisbio lysis buffer #1 supplemented with blocking solution as per the manufacturer's protocol (Cisbio). Cells were lysed for 30 mins at room temperature before 16 μl of lysate was incubated with 4 μl of the HTRF antibodies (1:40 dilution of the acceptor and donor (p)ACC antibodies, as per the manufacturers protocol). Lysates were incubated overnight with the antibodies before 665 nm/620 nm ratio was determined using a MolecularDevices i3 plate reader (with a HTRF cartridge add-on).
Phosphorylation of ACC is widely used as a cellular indicator of AMPK activity.
A general note: TR-FRET usually uses a lanthanide donor and a delayed reading to cut background.

The test system of the next test is AMPK β1 WT. Briefly: pACC HTRF assay in AMPKβ1/β2 double knockout U-2 OS cells stably expressing β1 WT. The test is classed as cell-based, human. The conditions noted are these: varying concentrations. The source says: (§1) AMPKβ1/β2 double knockout U-2 OS Flp-In™ T-Rex™ cell lines were generated by Horizon Discovery (Cambridge, UK). Cells were genotyped and analysed by western blotting to confirm that there was a complete knockout of AMPKβ1/β2. We took these AMPKβ1/β2 double knockout cells, and re-introduced the expression of human β1 wild-type (WT) or a […] Serine 108 to alanine mutation (S108A). This was achieved using the Flp-In™ system (Invitrogen) present in this cell line and stable cells expressing β1 WT or a β1 S108A mutant were generated according to the manufacturers' protocols. Re-expression of the β1 subunit was confirmed by Western blot analysis.
(§2) Cells stably expressing β1 WT or a β1 S108A mutant were treated with varying concentrations of Compound 1 and subjected to the pACC HTRF (Cisbio) assay to determine the level of phosphorylation of the AMPK substrate, ACC, in cell lysates.
(§3) AMPKβ1/β2 double knockout cells were used and re-introduced the expression of human β1 WT or β2 WT isoforms. […] Cells stably expressing β1 WT or β2 were treated with varying concentrations of Compound 1 and subjected to the pACC HTRF (Cisbio) assay to determine the level of phosphorylation of the AMPK substrate, ACC, in cell lysates, as in Example 1.

Test [1] relates to AMPK β1 S108A mutant (ADaM-binding site mutant). Briefly: pACC HTRF assay in AMPKβ1/β2 double knockout U-2 OS cells stably expressing β1 S108A mutant. The test is classed as cell-based, human. The following applies: varying concentrations.
Excerpt: as §1, §2

For a further test, the system named is AMPK β2 WT isoform. Briefly: pACC HTRF assay in AMPKβ1/β2 double knockout U-2 OS cells stably expressing β2 WT. The test is classed as cell-based, human. The following applies: varying concentrations. Here is the method:
as §3
This activation profile is characteristic of activators that bind to the ADaM site and consistent with previous studies showing that ADaM-site activators have poorer activation of β2-containing complexes in vitro and in cells.

Molecules are shown by their SMILES. Entries after “also recorded” stand apart in the source; their conditions may differ.

`COc1cc(O)c2c(c1)c(=O)oc1cc(O)ccc12` [Compound 1, 3,10-Dihydroxy-8-methoxy-6H-benzo[c]chromen-6-one]: the “phosphorylation of the AMPK substrate, ACC (pACC)” value with AMPK is listed as “increases the phosphorylation of the AMPK substrate, ACC, in a dose-dependent manner”. Further, the entries for the “phosphorylation of the AMPK substrate, ACC (pACC); AMPK activation” value (with AMPK β1 WT; in test [1]; in the test on AMPK β2 WT isoform) were “activates AMPK; also recorded: able to dose-dependently increase pACC”, “does not activate AMPK; also recorded: not able to increase pACC” and “does not activate AMPK; also recorded: not able to increase pACC”, respectively.
